Reference: US5747482A, “Methods and compositions to inhibit keratinocyte proliferation” (priority 1996, dated 1998)

Legend:
Keratinocytes [1] = assay: Comparison of keratinocyte growth inhibition by gallium maltol, gallium nitrate and maltol, Example 3; type: cell-based, human; conditions: 1×10^-4 M, 9 days, high Ca^+2 medium; FIG. 3
Source text: (§1) Adult human keratinocytes from pooled donor skin were obtained from commercial sources (Cascade Biologics, Portland, Oreg., U.S.A.) and placed in 150 cm^2 bottom area culture flasks using culture medium 154 supplemented with HKGS (about 1%). At 80% confluency, cells were harvested with trypsin and cryopreserved until required.
(§2) At the start of the experiments, the required number of vials of keratinocytes was thawed, and the keratinocytes were placed in culture in 24 well plates at about 2,500 cells/cm^2 using the same culture medium as described above. After 24 hours (to allow attachment), the medium was changed to fresh 154 supplemented with HKGS (about 1%) and gallium maltol. Specifically, the fresh medium was prepared by addition of a sufficient amount of a stock solution to provide for six different compositions having a final gallium concentration of 10^-4 M, 10^-5 M, 10^-6 M, 10^-8 M, 10^-10 M, and 10^-12 M. The stock solution was prepared by adding 22.25 mg of gallium maltol to 50 mL of 154 medium and then passing the solution through a 0.2 μm filter and storing at 4° C.
When control cells were about 40% confluent (generally at 4-5 days in culture, all media were removed by aspiration, keratinocyte growth was assayed by crystal violet staining and conversion to cell numbers as described by Wilkinson, et al.^11. Specifically, cell layers rinsed in PBS, which was also aspirated, and 4 drops of crystal violet solution added to each well. The crystal violet solution was prepared by dissolving crystal violet (Fisher Scientific) in PBS:formaldehyde:ethanol (67:3:30%) to give a 0.5 w/v solution. A blank 24-well plate was treated similarly.
Keratinocytes were cultured in 24-well plates for 9 days in the manner described above in Example 2. […]
The cells were then cultured and subsequently evaluated for inhibition of keratinocyte proliferation in the manner described above.

[2] = tested on: Adult human keratinocytes; assay: Keratinocyte growth inhibition (crystal violet staining; confirmatory hexosaminidase activity), Example 2; type: cell-based
Source text: as §2, with “Adult human keratinocytes from pooled donor skin were obtained from commercial sources (Cascade Biologics, Portland, Oreg., U.S.A.) and placed in 150 cm^2 bottom area culture flasks using culture medium 154 supplemented with HKGS (about 1%). At 80% confluency, cells were harvested with trypsin and cryopreserved until required. At” for “At”, “C. Media were replaced every 2 or 3 days. […]” for “C.”

Keratinocytes [3] = assay: Effect on cell differentiation, keratinocytes grown 4 days before gallium maltol, Example 4; type: cell-based, human; conditions: for CELL NUMBER, clear squamous / CELL NUMBER, squamous / CELL NUMBER, proliferative: 3 days after 4 days growth; for CELL NUMBER, clear squamous: control 2.0 ± 0.03%; for CELL NUMBER, squamous: control 13.3 ± 2.6%; for CELL NUMBER, proliferative: control 83.6 ± 3.0%
Method: as §1
(§3) Culture flasks (75 cm^2 bottom area) were seeded with keratinocytes at about 2,500 cells per cm^2 as before. After 24 hours, the medium in three (3) flasks were changed to media (154) with the calcium content increased from the normal 0.2 mM to 1.0 mM ("high calcium") plus gallium maltol (GaM) at the following concentrations: 1×10^-5 M, 5×10^-5 M, and 1×10^-4 M. The culture was continued for 7 days when cells were about 75% confluent in the controls (no GaM). Media supplemented as above were changed every 2 days. Finally, media were aspirated and cells rinsed with PBS before exposure to trypsin (0.025%)/EDTA (0.01%). When dislodged, they were collected in centrifuge tubes and the flasks rinsed with PBS:trypsin neutralizing solution (Clonetics, San Diego, Calif., U.S.A.; 1:1 v/v) and added to the cell suspension. The total volume of suspensions was approximately 8 to 10 mL. Aliquots of these suspensions were counted on the hemocytometer in terms of:
(§4) (1) small, light or dark keratinocytes, referred to as "proliferating";
(§5) (2) larger, squamous keratinocytes, with intracellular structural elements; and
(§6) (3) clear squamous cells without structural elements.
In a subsequent experiment, flasks of keratinocytes were grown in medium 154 for 4 days after seeding, before switching to the high calcium medium without gallium maltol (control) or with gallium maltol at final concentrations of 5×10^-5, 1×10^-5 or 1×10^-6 M. There were 2 or 3 flasks in each group. Culture was continued for another 3 days, when the keratinocytes were harvested and counted as before.

Keratinocytes [4] = assay: Effect on cell differentiation and cell number, gallium maltol added 24 hours after seeding, Example 4; type: cell-based, human; conditions: 7 days, high calcium
Method: as §1, §3, §4, §5, §6
After counting, each suspension was centrifuged, the supernatant discarded, and the cell pellet resuspended in 0.5 to 1.0 mL of 1% SDS:2.5 mM DTT. After 15 minutes at 37° C., aliquots of these suspensions were counted for insoluble cornified envelops. The volumes were noted.

[5] = distilled deionized water
Source text: Under some conditions, water may also be incorporated into the structure. […] The complex can be recrystallized from ethanol or other solvents to increase purity.

Cc1occc(=O)c1[O-].Cc1occc(=O)c1[O-].Cc1occc(=O)c1[O-].[Ga+3] [gallium maltol, neutral 3:1 gallium complex of maltol]
inhibition of keratinocyte proliferation (Keratinocytes [1]): about 94% | keratinocyte growth reduced as compared to control ([2]; 10^-4 M, FIG. 1 (crystal violet) and FIG. 2 (hexosaminidase), 100 µM): 60 to 90% | effect on keratinocyte growth at lower concentrations ([2]; concentrations below 10^-4 M, FIG. 2 (hexosaminidase)): may, in fact, slightly promote keratinocyte growth | CELL NUMBER, clear squamous (Keratinocytes [3]; 1×10^-5 M): 3.1 ± 0.06% | CELL NUMBER, squamous (Keratinocytes [3]; 1×10^-5 M): 16.0 ± 3.1% | CELL NUMBER, proliferative (Keratinocytes [3]; 1×10^-5 M): 80.8 ± 2.0% | differences in cell differentiation as determined by the proportion of cells (Keratinocytes [3]; 5×10^-5 M, 1×10^-5 M (1×10^-6 M not counted), 4 days growth, then 3 days exposure): no significant differences were observed in cell differentiation | CELL NUMBER, clear squamous (Keratinocytes [3]; 5×10^-5 M): 3.5 ± 0.06% | CELL NUMBER, squamous (Keratinocytes [3]; 5×10^-5 M): 14.0 ± 1.1% | CELL NUMBER, proliferative (Keratinocytes [3]; 5×10^-5 M): 82.4 ± 0.91% | anti-proliferative effect (Keratinocytes [4]; 1×10^-4 M): so great that the number of cells was too small for accurate counting | number of proliferative, squamous and cornified cells vs control (Keratinocytes [4]; 1×10^-5 M): for all intents and purposes, unchanged compared to control | increase in the number of cornified envelopes vs control (Keratinocytes [4]; 5×10^-5 M): tenfold | decrease in total number of cells (Keratinocytes [4]; 5×10^-5 M, vs control, 50 µM): about 90% | number of squamous cells vs control (Keratinocytes [4]; 5×10^-5 M, FIG. 4): increase in the number of squamous cells | proportion of proliferative cells vs control (Keratinocytes [4]; 5×10^-5 M, FIG. 4): moderate decrease in the proportion of proliferative cells | CELL NUMBER, cornified (Keratinocytes [4]; 10^-5 M, control 0.26 ± 0.01%): 0.39 ± 0.17% | CELL NUMBER, clear squamous (Keratinocytes [4]; 10^-5 M, control 1.8 ± 0.9%): 2.9 ± 0.15% | CELL NUMBER, squamous (Keratinocytes [4]; 10^-5 M, control 12.7 ± 2.7%): 13.5 ± 0.65% | CELL NUMBER, proliferative (Keratinocytes [4]; 10^-5 M, control 85.3 ± 2.7%): 83.6 ± 0.64% | concentration at which inhibition of keratinocyte proliferation is achieved (Keratinocytes [4]): greater than 1×10^-5 M | concentration enhancing cell differentiation of keratinocytes (Keratinocytes [4]): greater than 1×10^-5 M | solubility [5]: about 24 millimolar
